Test results published in patent publication US20230141101A1, “PDE4 INHIBITOR COMPOUND AND MEDICAL USE THEREOF” (Suzhou Longbotai Pharmaceuticals Co., Ltd., priority 2020, published 2023).

Columns and labels:
Type in all cases: biochemical
Conditions in all cases: 20 nM
PDE4A1A = biological target: T1, PDE4A1A (Homo sapiens, UniProt P27815); experiment: PDE4 inhibitory activity assay (FAM-cAMP enzymatic reaction), PDE4A1A
T1 construct: purchased BPS 60040
In short: (§1)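 Human PDE4A1A, PDE4B1 or PDE4D2 preincubated with compound 15 min at room temperature, then FAM-cAMP substrate added; reaction 30 min at room temperature before stop solution and further 60 min. Fluorescence read on multilabel counter; IC50 fitted from inhibition rates.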

PDE4D2 = PDE4D2 (Homo sapiens, UniProt Q08499); experiment: PDE4 inhibitory activity assay (FAM-cAMP enzymatic reaction), PDE4D2
In short: as §1

PDE4B1 = biological target: T2, PDE4B1 (Homo sapiens, UniProt Q07343); experiment: PDE4 inhibitory activity assay (FAM-cAMP enzymatic reaction), PDE4B1
T2 construct: purchased BPS 60041
In short: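 Each isoform is incubated with test compound for 15 min at room temperature before FAM-cAMP substrate starts a 30-min reaction.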

T2 sequence (Q07343 whole entry): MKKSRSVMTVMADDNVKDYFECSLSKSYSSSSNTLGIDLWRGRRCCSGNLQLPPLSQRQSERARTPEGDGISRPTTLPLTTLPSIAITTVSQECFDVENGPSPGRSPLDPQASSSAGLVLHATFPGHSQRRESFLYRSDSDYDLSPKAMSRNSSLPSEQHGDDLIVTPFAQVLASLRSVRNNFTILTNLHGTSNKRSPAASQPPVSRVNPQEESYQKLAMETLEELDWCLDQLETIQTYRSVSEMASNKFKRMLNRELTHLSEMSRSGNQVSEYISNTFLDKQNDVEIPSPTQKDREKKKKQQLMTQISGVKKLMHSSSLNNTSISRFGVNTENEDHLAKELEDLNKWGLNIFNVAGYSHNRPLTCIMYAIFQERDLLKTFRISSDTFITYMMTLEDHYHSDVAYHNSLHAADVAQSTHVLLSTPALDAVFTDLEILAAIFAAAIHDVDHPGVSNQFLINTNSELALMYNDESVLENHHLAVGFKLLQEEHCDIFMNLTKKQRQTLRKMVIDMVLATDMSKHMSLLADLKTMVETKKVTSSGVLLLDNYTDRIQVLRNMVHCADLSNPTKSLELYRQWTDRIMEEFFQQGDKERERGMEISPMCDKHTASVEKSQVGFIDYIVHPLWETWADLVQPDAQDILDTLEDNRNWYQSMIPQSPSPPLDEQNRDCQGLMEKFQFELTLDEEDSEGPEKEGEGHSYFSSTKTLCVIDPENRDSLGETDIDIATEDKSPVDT
T1 sequence (P27815 1-647 isoform P27815-4): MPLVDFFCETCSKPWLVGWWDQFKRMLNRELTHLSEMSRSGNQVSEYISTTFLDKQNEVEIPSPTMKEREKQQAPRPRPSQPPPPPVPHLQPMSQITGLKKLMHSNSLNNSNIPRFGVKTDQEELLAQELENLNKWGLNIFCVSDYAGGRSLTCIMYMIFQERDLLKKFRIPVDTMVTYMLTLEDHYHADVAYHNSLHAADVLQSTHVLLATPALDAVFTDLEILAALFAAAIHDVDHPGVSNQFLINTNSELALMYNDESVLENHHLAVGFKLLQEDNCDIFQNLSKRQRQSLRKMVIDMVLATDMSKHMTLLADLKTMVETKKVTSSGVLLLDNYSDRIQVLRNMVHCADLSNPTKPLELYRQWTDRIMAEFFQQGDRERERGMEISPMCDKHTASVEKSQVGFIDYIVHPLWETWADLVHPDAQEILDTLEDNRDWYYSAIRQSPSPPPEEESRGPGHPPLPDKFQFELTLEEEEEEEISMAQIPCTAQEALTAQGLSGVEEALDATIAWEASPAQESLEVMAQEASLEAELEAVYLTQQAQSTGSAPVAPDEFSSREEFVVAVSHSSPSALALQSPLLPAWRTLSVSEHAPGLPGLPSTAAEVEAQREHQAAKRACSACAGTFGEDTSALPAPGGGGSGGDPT
Sequence of PDE4D2 (Q08499 303-809): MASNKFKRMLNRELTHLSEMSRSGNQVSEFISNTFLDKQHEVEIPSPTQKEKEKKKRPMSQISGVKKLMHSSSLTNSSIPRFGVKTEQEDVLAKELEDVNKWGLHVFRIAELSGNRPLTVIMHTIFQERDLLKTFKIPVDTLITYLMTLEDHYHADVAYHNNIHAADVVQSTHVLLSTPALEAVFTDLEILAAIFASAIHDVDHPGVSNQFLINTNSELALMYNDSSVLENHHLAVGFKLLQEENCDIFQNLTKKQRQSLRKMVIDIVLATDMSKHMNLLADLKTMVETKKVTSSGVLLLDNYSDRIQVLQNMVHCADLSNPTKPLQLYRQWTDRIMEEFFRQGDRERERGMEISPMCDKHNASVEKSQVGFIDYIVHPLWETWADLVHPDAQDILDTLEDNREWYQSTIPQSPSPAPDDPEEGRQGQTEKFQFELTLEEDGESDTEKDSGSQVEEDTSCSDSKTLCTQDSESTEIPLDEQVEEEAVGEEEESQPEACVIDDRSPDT

Structure (SMILES) | PDE4 A1 inhibitory effect at 20 nM (PDE4A1A) | PDE4 D2 inhibitory effect at 20 nM (PDE4D2) | PDE4 B1 inhibitory effect at 20 nM (PDE4B1)
CCOc1nc([C@@H](CS(C)(=O)=O)n2c(=O)[nH]c3c(C)c(-c4ccccc4C(C)C)ccc32)ccc1OC [Ex. 149, (S)-1-(1-(6-ethoxy-5-methoxypyridin-2-yl)-2-(methylsulfonyl)ethyl)-5-(2-isopropylphenyl)-4-methyl-1H-benzo[d]imidazol-2(3H)-one] | + | + | +
CCOc1nc([C@@H](CS(C)(=O)=O)n2c(=O)[nH]c3c(-c4ccccc4OC)cccc32)ccc1OC [Ex. 203, (S)-1-(1-(6-ethoxy-5-methoxypyridin-2-yl)-2-(methylsulfonyl)ethyl)-4-(2-methoxyphenyl)-1H-benzo[d]imidazol-2(3H)-one] | + | + | +
CCOc1nc([C@@H](CS(C)(=O)=O)n2c(=O)[nH]c3cc(-c4ccccc4)cnc32)ccc1OC [Ex. 76, (S)-3-(1-(6-ethoxy-5-methoxypyridin-2-yl)-2-(methylsulfonyl)ethyl)-6-phenyl-1H-imidazo[4,5-b]pyridin-2(3H)-one] | + | + | +
CCOc1nc([C@@H](CS(C)(=O)=O)n2c(=O)n(C3CC3)c3cc(C)ccc32)ccc1OC [Ex. 209, (S)-3-cyclopropyl-1-(1-(6-ethoxy-5-methoxypyridin-2-yl)-2-(methylsulfonyl)ethyl)-5-methyl-1H-benzo[d]imidazol-2(3H)-one] | + | + | +
CCOc1nc([C@@H](CS(C)(=O)=O)n2c(=O)[nH]c3cc(-c4c(C)cccc4C)cnc32)ccc1OC [Ex. 105, (S)-6-(2,6-dimethylphenyl)-3-(1-(6-ethoxy-5-methoxypyridin-2-yl)-2-(methylsulfonyl)ethyl)-1H-imidazo[4,5-b]pyridin-2(3H)-one] | + | + | +
CCOc1nc([C@@H](CS(C)(=O)=O)n2c(=O)[nH]c3cc(-c4cc(F)ccc4OC)cnc32)ccc1OC [Ex. 117, (S)-6-(5-fluoro-2-methoxyphenyl)-3-(1-(6-ethoxy-5-methoxypyridin-2-yl)-2-(methylsulfonyl)ethyl)-1H-imidazo[4,5-b]pyridin-2(3H)-one] | + | + | +
CCOc1nc([C@H](CS(C)(=O)=O)N2Cc3cccc(NC(C)=O)c3C2=O)ccc1OC [Ex. 216, (R)—N-(2-(1-(6-ethoxy-5-methoxypyridin-2-yl)-2-(methylsulfonyl)ethyl)-3-oxoisoindolin-4-yl)acetamide] | + | + | +
CCOc1nc([C@@H](CS(C)(=O)=O)n2c(=O)n(C)c3cc(-c4ccc(C)cc4C)cnc32)ccc1OC [Ex. 100, (S)-6-(2,4-dimethylphenyl)-3-(1-(6-ethoxy-5-methoxypyridin-2-yl)-2-(methylsulfonyl)ethyl)-1-methyl-1H-imidazo[4,5-b]pyridin-2(3H)-one] | + | + | +
CCOc1nc([C@@H](CS(C)(=O)=O)n2c(=O)[nH]c3cc(-c4c(F)cccc4F)cnc32)ccc1OC [Ex. 88, (S)-6-(2,6-difluorophenyl)-3-(1-(6-ethoxy-5-methoxypyridin-2-yl)-2-(methylsulfonyl)ethyl)-1H-imidazo[4,5-b]pyridin-2(3H)-one] | + | + | +
CCOc1nc([C@@H](CS(C)(=O)=O)n2c(=O)[nH]c3c(C)c(-c4cc(C)ccc4C)cnc32)ccc1OC [Ex. 32, (S)-6-(2,5-dimethylphenyl)-3-(1-(6-ethoxy-5-methoxypyridin-2-yl)-2-(methylsulfonyl)ethyl)-7-methyl-1H-imidazo[4,5-b]pyridin-2(3H)-one] | + | + | +
CCOc1ccccc1-c1ccc2c(c1)[nH]c(=O)n2[C@@H](CS(C)(=O)=O)c1ccc(OC)c(OCC)n1 [Ex. 193, (R)-1-(1-(6-ethoxy-5-methoxypyridin-2-yl)-2-(methylsulfonyl)ethyl)-5-(2-ethoxyphenyl)-1H-benzo[d]imidazol-2(3H)-one] | − | − | −
CCOc1nc([C@@H](CS(C)(=O)=O)n2c(=O)[nH]c3cc(-c4ccc(C)cc4C)cnc32)ccc1OC [Ex. 99, (S)-6-(2,4-dimethylphenyl)-3-(1-(6-ethoxy-5-methoxypyridin-2-yl)-2-(methylsulfonyl)ethyl)-1H-imidazo[4,5-b]pyridin-2(3H)-one] | + | + | +
CCOc1nc([C@@H](CS(C)(=O)=O)n2c(=O)n(C)c3cc(-c4c(C)cccc4C)cnc32)ccc1OC [Ex. 106, (S)-6-(2,6-dimethylphenyl)-3-(1-(6-ethoxy-5-methoxypyridin-2-yl)-2-(methylsulfonyl)ethyl)-1-methyl-1H-imidazo[4,5-b]pyridin-2(3H)-one] | + | + | +

The next lines start with the values.

PDE4 A1 inhibitory effect at 20 nM (PDE4A1A) | PDE4 D2 inhibitory effect at 20 nM (PDE4D2) | PDE4 B1 inhibitory effect at 20 nM (PDE4B1) | Structure (SMILES)
+ | + | + | CCOc1nc([C@@H](CS(C)(=O)=O)n2c(=O)[nH]c3cc(Br)ccc32)ccc1OC [Ex. 129, (S)-5-bromo-1-(1-(6-ethoxy-5-methoxypyridin-2-yl)-2-(methylsulfonyl)ethyl)-1H-benzo[d]imidazol-2(3H)-one]
+ | + | + | CCOc1nc([C@@H](CS(C)(=O)=O)n2c(=O)[nH]c3cc(-c4c(F)cccc4OC)cnc32)ccc1OC [Ex. 121, (S)-6-(6-fluoro-2-methoxyphenyl)-3-(1-(6-ethoxy-5-methoxypyridin-2-yl)-2-(methylsulfonyl)ethyl)-1H-imidazo[4,5-b]pyridin-2(3H)-one]
+ | + | + | CCOc1nc([C@@H](CS(C)(=O)=O)n2c(=O)[nH]c3cc(-c4ccc(C)cc4F)ccc32)ccc1OC [Ex. 179, (S)-5-(2-fluoro-4-methylphenyl)-1-(1-(6-ethoxy-5-methoxypyridin-2-yl)-2-(methylsulfonyl)ethyl)-1H-benzo[d]imidazol-2(3H)-one]
+ | + | + | CCOc1nc([C@@H](CS(C)(=O)=O)n2c(=O)n(C)c3cc(-c4cc(F)ccc4F)ccc32)ccc1OC [Ex. 161, (S)-5-(2,5-difluorophenyl)-1-(1-(6-ethoxy-5-methoxypyridin-2-yl)-2-(methylsulfonyl)ethyl)-3-methyl-1H-benzo[d]imidazol-2(3H)-one]
+ | + | + | CCOc1nc([C@@H](CS(C)(=O)=O)n2c(=O)[nH]c3c(C)c(-c4c(F)cccc4F)cnc32)ccc1OC [Ex. 23, (S)-6-(2,6-difluorophenyl)-3-(1-(6-ethoxy-5-methoxypyridin-2-yl)-2-(methylsulfonyl)ethyl)-7-methyl-1H-imidazo[4,5-b]pyridin-2(3H)-one]
+ | + | + | CCOc1nc([C@@H](CS(C)(=O)=O)n2c(=O)[nH]c3cc(-c4cc(F)c(F)cc4F)cnc32)ccc1OC [Ex. 96, (S)-6-(2,4,5-trifluorophenyl)-3-(1-(6-ethoxy-5-methoxypyridin-2-yl)-2-(methylsulfonyl)ethyl)-1H-imidazo[4,5-b]pyridin-2(3H)-one]
+ | + | + | CCOc1nc([C@@H](CS(C)(=O)=O)n2c(=O)[nH]c3c(C)c(-c4cc(F)ccc4OC)cnc32)ccc1OC [Ex. 44, (S)-6-(5-fluoro-2-methoxyphenyl)-3-(1-(6-ethoxy-5-methoxypyridin-2-yl)-2-(methylsulfonyl)ethyl)-7-methyl-1H-imidazo[4,5-b]pyridin-2(3H)-one]
+ | + | + | CCOc1nc([C@@H](CS(C)(=O)=O)n2c(=O)n(CC(F)F)c3c(C)c(-c4ccccc4)cnc32)ccc1OC(C)C [Ex. 70, (S)-1-(2,2-difluoroethyl)-3-(1-(6-ethoxy-5-isopropoxypyridin-2-yl)-2-(methylsulfonyl)ethyl)-7-methyl-6-phenyl-1H-imidazo[4,5-b]pyridin-2(3H)-one]
+ | + | + | CCOc1nc([C@@H](CS(C)(=O)=O)n2c(=O)n(CC(F)(F)F)c3c(C)c(-c4ccccc4)cnc32)ccc1OC [Ex. 53, (S)-3-(1-(6-ethoxy-5-methoxypyridin-2-yl)-2-(methylsulfonyl)ethyl)-7-methyl-6-phenyl-1-(2,2,2-trifluoroethyl)-1H-imidazo[4,5-b]pyridin-2(3H)-one]
+ | + | + | CCOc1nc([C@@H](CS(C)(=O)=O)n2c(=O)n(C)c3cc(-c4cccc(C)c4C)cnc32)ccc1OC [Ex. 104, (S)-6-(2,3-dimethylphenyl)-3-(1-(6-ethoxy-5-methoxypyridin-2-yl)-2-(methylsulfonyl)ethyl)-1-methyl-1H-imidazo[4,5-b]pyridin-2(3H)-one]
